Assays:
[1] = Stability studies: total moxidectin and triclabendazole levels after storage; format: physicochemical; conditions: in Composition F, 25° C. or 40° C.; for Stability of the active during storage (in words): entire 6 month storage period
Experimental: Stability studies were conducted to ensure that a composition according to the present invention was stable. Composition F of Example 3 was prepared according to the process described in Example 1 and stored at either ambient (25° C.) or 40° C. for a total period of 6 months. At the conclusion of each storage period shown in Table V below, samples were tested for total moxidectin and triclabendazole levels.

[2] = Triclabendazole solubility in various lactone solvents; format: physicochemical
Experimental: Still further embodiments of anthelmintic compositions representative of the present invention are prepared according to the process described in Example 1 above, except that lactone solvents other than γ-hexalactone are employed. In particular, the compositions are prepared with one of the following lactone solvents: butyrolactone, δ-hexalactone, γ-dodecalactone, δ-nonalactone, δ-decalactone, γ-decalactone, and δ-dodecalactone.

SMILES	Stability of the active during storage (in words) [1]	Physical state of the active during storage (in words) ([1]; up to 6 months)	Solvency in lactone solvents (in words) ([2]; lactone solvents of Table VIII and similar lactones and combinations)	Triclabendazole Solubility (% w/w) ([2]; solvent γ-butyrolactone)	Triclabendazole Solubility (% w/w) ([2]; solvent γ-decalactone)	Triclabendazole Solubility (% w/w) ([2]; solvent γ-dodecalactone)	Triclabendazole Solubility (% w/w) ([2]; solvent γ-hexalactone)	Triclabendazole Solubility (% w/w) ([2]; solvent γ-nonalactone)	Triclabendazole Solubility (% w/w) ([2]; solvent δ-decalactone)	Triclabendazole Solubility (% w/w) ([2]; solvent δ-dodecalactone)
CO/N=C1\C[C@]2(C[C@@H]3C[C@@H](C/C=C(\C)C[C@@H](C)/C=C/C=C4\CO[C@@H]5[C@H](O)C(C)=C[C@@H](C(=O)O3)[C@]45O)O2)O[C@H](/C(C)=C/C(C)C)[C@H]1C [Moxidectin]	remained stable and active	–	–	–	–	–	–	–	–	–
CSc1nc2cc(Cl)c(Oc3cccc(Cl)c3Cl)cc2[nH]1 [Triclabendazole, 5-chloro-6(2,3-dichlorophenoxy)-2-methylthio-1H-benzimidazole]	remained stable and active	remained in solution	surprisingly good solvency	>18.0 % w/w	15.2 % w/w	11.8 % w/w	16.8 % w/w	16.7 % w/w	28.1 % w/w	21.5 % w/w
